Test results from patent US20250179088A9 (ZYMEWORKS BC INC., priority 2020, published 2025).

Tests used:
[1] = target: T1, TLR7 (Homo sapiens, UniProt Q9NYK1); test: Reporter gene assay, HEK-Blue TLR7 reporter cells (SEAP)
T1 sequence (Q9NYK1 27-1049): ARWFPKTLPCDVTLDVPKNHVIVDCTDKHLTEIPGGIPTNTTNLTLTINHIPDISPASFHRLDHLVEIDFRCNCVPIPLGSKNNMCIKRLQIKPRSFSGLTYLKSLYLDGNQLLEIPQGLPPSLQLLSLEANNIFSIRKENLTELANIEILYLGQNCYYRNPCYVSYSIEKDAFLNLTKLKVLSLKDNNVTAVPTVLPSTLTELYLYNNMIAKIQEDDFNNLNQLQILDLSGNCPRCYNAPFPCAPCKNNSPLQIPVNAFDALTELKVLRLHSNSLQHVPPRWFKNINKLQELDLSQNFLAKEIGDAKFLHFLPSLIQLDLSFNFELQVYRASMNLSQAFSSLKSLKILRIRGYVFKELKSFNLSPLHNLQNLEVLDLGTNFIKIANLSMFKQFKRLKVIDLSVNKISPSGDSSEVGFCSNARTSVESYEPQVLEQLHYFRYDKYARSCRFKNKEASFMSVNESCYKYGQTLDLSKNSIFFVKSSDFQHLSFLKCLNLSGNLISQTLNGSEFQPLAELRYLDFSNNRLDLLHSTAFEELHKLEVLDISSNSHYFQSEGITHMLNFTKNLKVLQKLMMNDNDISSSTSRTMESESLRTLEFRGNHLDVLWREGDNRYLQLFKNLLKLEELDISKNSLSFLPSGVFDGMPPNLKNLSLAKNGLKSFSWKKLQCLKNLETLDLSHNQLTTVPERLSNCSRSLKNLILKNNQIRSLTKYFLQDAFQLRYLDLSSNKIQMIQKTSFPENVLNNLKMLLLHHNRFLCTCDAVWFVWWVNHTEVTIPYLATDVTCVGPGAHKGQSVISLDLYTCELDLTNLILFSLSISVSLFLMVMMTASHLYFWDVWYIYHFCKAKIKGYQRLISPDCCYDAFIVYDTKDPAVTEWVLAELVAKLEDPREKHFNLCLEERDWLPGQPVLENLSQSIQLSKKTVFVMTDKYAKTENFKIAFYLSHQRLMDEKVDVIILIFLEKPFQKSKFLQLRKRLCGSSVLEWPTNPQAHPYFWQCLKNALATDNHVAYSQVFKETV
Experimental: (§1) 3×10^4 HEK-Blue™ TLR7 or 3×10^4 TLR8 reporter cells (InvivoGen, San Diego, CA) were treated with titrated (4-fold) amounts of test compound. […] Cells were incubated overnight at 37° C. and 5% CO2, then absorbance (620 and 655 nm) was read on a Synergy™ H1 microplate reader.

[2] = target: T2, TLR8 (Homo sapiens, UniProt Q9NR97); test: Reporter gene assay, HEK-Blue TLR8 reporter cells (SEAP)
T2 sequence (Q9NR97 27-1041): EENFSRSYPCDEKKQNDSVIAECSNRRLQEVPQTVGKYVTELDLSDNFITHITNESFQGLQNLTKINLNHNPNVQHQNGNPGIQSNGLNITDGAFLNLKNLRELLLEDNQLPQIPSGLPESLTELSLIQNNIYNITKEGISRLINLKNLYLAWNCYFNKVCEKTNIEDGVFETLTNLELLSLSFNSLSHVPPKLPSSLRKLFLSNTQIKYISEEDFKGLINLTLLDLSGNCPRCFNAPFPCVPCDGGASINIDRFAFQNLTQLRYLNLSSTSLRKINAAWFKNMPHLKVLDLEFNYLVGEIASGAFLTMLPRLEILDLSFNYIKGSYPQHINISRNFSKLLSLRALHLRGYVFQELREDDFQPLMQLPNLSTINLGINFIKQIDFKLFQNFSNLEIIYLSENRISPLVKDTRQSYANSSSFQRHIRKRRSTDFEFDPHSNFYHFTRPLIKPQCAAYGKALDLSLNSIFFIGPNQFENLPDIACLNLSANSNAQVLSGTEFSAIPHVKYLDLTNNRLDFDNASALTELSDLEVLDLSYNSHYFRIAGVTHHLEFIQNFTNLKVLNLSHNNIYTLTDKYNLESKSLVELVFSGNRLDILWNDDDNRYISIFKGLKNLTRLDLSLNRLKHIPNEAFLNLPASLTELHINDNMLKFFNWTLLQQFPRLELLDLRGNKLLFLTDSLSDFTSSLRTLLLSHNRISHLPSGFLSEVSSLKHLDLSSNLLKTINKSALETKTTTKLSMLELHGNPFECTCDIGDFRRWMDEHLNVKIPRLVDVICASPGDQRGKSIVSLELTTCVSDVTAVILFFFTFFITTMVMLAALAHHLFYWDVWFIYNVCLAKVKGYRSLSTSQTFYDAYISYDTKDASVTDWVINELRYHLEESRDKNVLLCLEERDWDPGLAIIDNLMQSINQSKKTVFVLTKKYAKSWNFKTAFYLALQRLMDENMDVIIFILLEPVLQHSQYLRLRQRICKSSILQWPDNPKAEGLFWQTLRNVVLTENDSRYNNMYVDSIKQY
Experimental: as §1

| Compound | EC50 [1] | EC50 [2] |
| --- | --- | --- |
| CCCCc1nc2c(N)nc3ccsc3c2n1Cc1ccc(CNc2nnc[nH]2)cc1 [Compound 272, 1-(4-(((4H-1,2,4-triazol-3-yl)amino)methyl)benzyl)-2-butyl-1H-imidazo[4,5-d]thieno [3,2-b]pyridin-4-amine] | 33 nM | > 1000 nM |
| CCCCc1nc2c(N)nc3ccsc3c2n1Cc1ccc(CN2CCN(CCc3ccccn3)CC2)cc1 [Compound 275, 2-butyl-1-(4-((4-(2-(pyridin-2-yl)ethyl)piperazin-1-yl)methyl)benzyl)-1H-imidazo[4,5-d]thieno[3,2-b]pyridin-4-amine] | > 1000 nM | > 1000 nM |
| CCCCc1nc2c(N)nc3ccsc3c2n1Cc1ccc(C[N+]23CCN(CC2)CC3)cc1 [Compound 295, 1-(4-((4-amino-2-butyl-1H-imidazo[4,5-d]thieno[3,2-b]pyridin-1-yl)methyl)benzyl)-1,4-diazabicyclo[2.2.2]octan-1-ium] | > 1000 nM | > 1000 nM |
| CCCCc1nc2c(N)nc3ccsc3c2n1Cc1ccc(CN[C@H](C(=O)O)[C@@H](C)CC)cc1 [Compound 297, (4-((4-amino-2-butyl-1H-imidazo[4,5-d]thieno[3,2-b]pyridin-1-yl)methyl)benzyl)-L-isoleucine] | 676 nM | > 1000 nM |
| CCCCc1nc2c(N)nc3ccsc3c2n1Cc1ccc(CN[C@H](C(=O)O)[C@@H](C)O)cc1 [Compound 298, (4-((4-amino-2-butyl-1H-imidazo[4,5-d]thieno[3,2-b]pyridin-1-yl)methyl)benzyl)-L-threonine] | 159 nM | > 1000 nM |

Now those with a lower EC50 [1], led by results:

| EC50 [1] | EC50 [2] | Compound |
| --- | --- | --- |
| < 1 nM | 404 nM | CCCCc1nc2c(N)nc3ccsc3c2n1Cc1ccc(CN(CCC)CCC)cc1 [Compound 277, 2-butyl-1-(4-((dipropylamino)methyl)benzyl)-1H-imidazo[4,5-d]thieno[3,2-b]pyridin-4-amine] |
| < 1 nM | > 1000 nM | CCCCc1nc2c(N)nc3ccsc3c2n1Cc1ccc(C[n+]2ccccc2)cc1 [Compound 279, 1-(4-((4-amino-2-butyl-1H-imidazo[4,5-d]thieno[3,2-b]pyridin-1-yl)methyl)benzyl) pyridin-1-ium] |
| 9 nM | > 1000 nM | CCOCc1nc2c(N)nc3ccsc3c2n1Cc1ccc(CN2CCNCC2)cc1 [Compound 289, 2-(ethoxymethyl)-1-(4-(piperazin-1-ylmethyl)benzyl)-1H-imidazo[4,5-d]thieno[3,2-b]pyridin-4-amine] |
| 4 nM | 1030 nM | CCOCc1nc2c(N)nc3ccsc3c2n1Cc1ccc(CN(CC)CC)cc1 [Compound 290, 1-(4-((diethylamino)methyl)benzyl)-2-(ethoxymethyl)-1H-imidazo[4,5-d]thieno[3,2-b]pyridin-4-amine] |
| 14 nM | 1130 nM | CCOCc1nc2c(N)nc3ccsc3c2n1Cc1ccc(CNC2CC(F)(F)C2)cc1 [Compound 291, 1-(4-(((3,3-difluorocyclobutyl)amino)methyl)benzyl)-2-(ethoxymethyl)-1H-imidazo[4,5-d]thieno[3,2-b]pyridin-4-amine] |
| 3 nM | 674 nM | CCOCc1nc2c(N)nc3ccsc3c2n1Cc1ccc(CN[C@H](CO)[C@@H](C)CC)cc1 [Compound 292, (2S,3S)-2-((4-((4-amino-2-(ethoxymethyl)-1H-imidazo[4,5-d]thieno[3,2-b]pyridin-1-yl)methyl)benzyl)amino)-3-methylpentan-1-ol] |
| 7 nM | > 1000 nM | CCOCc1nc2c(N)nc3ccsc3c2n1Cc1ccc(CNCc2cc[nH]c2)cc1 [Compound 293, 1-(4-((((1H-pyrrol-3-yl)methyl)amino)methyl)benzyl)-2-(ethoxymethyl)-1H-imidazo [4,5-d]thieno[3,2-b]pyridin-4-amine] |
| < 1 nM | 134 nM | CCCCc1nc2c(N)nc3ccsc3c2n1Cc1ccc(CN[C@H](CO)[C@@H](C)CC)cc1 [Compound 296, (2S,3S)-2-((4-((4-amino-2-butyl-1H-imidazo[4,5-d]thieno[3,2-b]pyridin-1-yl)methyl)benzyl)amino)-3-methylpentan-1-ol] |
